The values below come from patent US10463630B2, “Interaction of methylated LSD1 and CHD1, a compound inhibiting this interaction for use in therapy, and a screening method for such a compound” (Albert-Ludwigs-Universität Freiburg, priority 2015, dated 2019).

The test system of data set [1] is LNCaP cells. Kind of data set: Chromatin immunoprecipitation (ChIP) at AREs of TMPRSS2 and KLK3 enhancers. The class given is cell-based, human. Conditions: for chromatin occupancy of G9A: presence or absence of DHT and Bix-01294. The procedure:
ChIP experiments were performed essentially as previously described^10. LNCaP and LAPC4 cells were cultured for 210 min in the absence or presence of 1×10^-7 M DHT as indicated. Three days before harvesting, cells were transfected with siRNA against LSD110, G9A20, or CHD121 that were previously described and validated using Dharmafect2 (Thermo Scientific) following the manufacturer's instructions. Immunoprecipitation was performed with specific antibodies (α-AR (N-20), #sc-816, lot A0207, Santa Cruz), α-LSD1 (#20752, Schuele Laboratory), α-LSD1 K114me2 (#4871, Schuele Laboratory), α-CHD1 (#A301-218A, lot A301-218A-1, Bethyl Laboratories), α-G9A (#ab40542, lot GR170862-1, Abcam) on protein A-Sepharose 4B (GE-Healthcare). For PCR, 2 μl out of 70 μl DNA extract were used. Primer sequences were as follows: TMPRSS2 enhancer (−13782/−13866) 5′-[…]-3′ (SEQ ID NO:1) and 5′-[…]-3′ (SEQ ID NO:2); KLK3 enhancer (−3980/−4048) 5′-[…]-3′ (SEQ ID NO:3) and 5′-[…]-3′ (SEQ ID NO:4); control (chr6:151953789-151953927) 5′-[…]-3′ (SEQ ID NO:5) and 5′-[…]-3′ (SEQ ID NO:6).
LNCaP cells were cultured and transfected as described^10.

Data set [2] deals with LNCaP cells. Kind of data set: Expression of androgen-regulated genes (quantitative RT-PCR). The class given is cell-based, human. The note with it: 1×10^−5 M Bix-01294, FIG. 3j.
The subject of data set [3] is LAPC4 cells. The data set is described as above. Format: cell-based. Conditions: 1×10^−5 M Bix-01294, FIG. 3k.
The subject of data set [4] is LAPC4 cells. The data set is described as follows: Chromosome conformation capture (3C), TMPRSS2 enhancer-breakpoint loop. Format: cell-based. The note with it: DHT, Bix-01294, FIG. 4b.
Procedure: LNCaP cells were grown for 72 hours in medium supplemented with 10% double-stripped FCS, treated for 210 min with or without DHT 10^−7 M, washed in PBS, and trypsinized 2 min at 37° C. After washing, cells were resuspended in PBS, filtered through a 40 μm cell strainer and collected in an ice cold 2% formaldehyde solution. After 15 min incubation at 4° C., fixation was stopped by adding glycine and cells were pelleted. After washing, cells were resuspended in nuclear isolation buffer (10 mM HEPES-KOH pH 7.9, 1.5 mM MgCl2, 10 mM KCl, 0.5 mM DTT, Complete protease inhibitor cocktail, Roche), allowed to swell on ice for 10 min, vortexed for 10 seconds at low speed, and pelleted. Isolated nuclei were resuspended in NEB restriction buffer, SDS was added to a final concentration of 0.5%, and nuclei were incubated for 1 h at 37° C. while shaking. Upon addition of Triton X-100, samples were incubated for 1 h at 37° C. to sequester SDS. 50 μl of the sample were taken and used as an undigested control. 600 U restriction enzyme were added and samples were incubated overnight at 37° C. while shaking. 40 μl 20% SDS solution was added and incubated for 20 min at 65° C. to inactivate the restriction enzyme. […] Purified DNA samples were analyzed on a Roche LightCycler®480 by TaqMan-based qPCR. […] To verify Enhancer-Breakpoint PCR product, samples were analyzed on a 2% agarose gel and sequenced. […]
For data set [5], the system named is LNCaP cells.
Procedure: LNCaP cells were grown for 72 hours in medium supplemented with 10% double-stripped FCS, treated for 210 min with or without DHT 10^−7 M, washed in PBS, and trypsinized 2 min at 37° C. After washing, cells were resuspended in PBS, filtered through a 40 μm cell strainer and collected in an ice cold 2% formaldehyde solution. After 15 min incubation at 4° C., fixation was stopped by adding glycine and cells were pelleted. After washing, cells were resuspended in nuclear isolation buffer (10 mM HEPES-KOH pH 7.9, 1.5 mM MgCl2, 10 mM KCl, 0.5 mM DTT, Complete protease inhibitor cocktail, Roche), allowed to swell on ice for 10 min, vortexed for 10 seconds at low speed, and pelleted. Isolated nuclei were resuspended in NEB restriction buffer, SDS was added to a final concentration of 0.5%, and nuclei were incubated for 1 h at 37° C. while shaking. Upon addition of Triton X-100, samples were incubated for 1 h at 37° C. to sequester SDS. 50 μl of the sample were taken and used as an undigested control. 600 U restriction enzyme were added and samples were incubated overnight at 37° C. while shaking. 40 μl 20% SDS solution was added and incubated for 20 min at 65° C. to inactivate the restriction enzyme. […] Purified DNA samples were analyzed on a Roche LightCycler®480 by TaqMan-based qPCR. […] To verify Enhancer-Breakpoint PCR product, samples were analyzed on a 2% agarose gel and sequenced.
In data set [6] the test system is LNCaP cells. The note with it: DHT 10^−6 M, 3 days, FIG. 4f.
Procedure: Expression analysis of TMPRSS2-ERG (FIG. 4f) was done essentially as previously described. […] HPRT was used for normalization.
(§1) LNCaP cells were cultured and transfected as described^10. […] For FISH and analysis of TMPRSS2-ERG expression (FIG. 4f,g) cells were transfected with siRNAs height and five days before harvesting; DHT 10^−6 M was added to the cells as indicated 3 days before harvesting. […] Cells were cultivated for 3 days (FIG. 4f, g) with DHT 10^−6 M as indicated.
For data set [7], the system named is LNCaP cells. Conditions: DHT 10^−6 M, 3 days, FIG. 4g.
Procedure: as §1
To determine TMPRSS2-ERG fusion status in LNCaP cells, a FISH break-apart assay was performed as described previously^41. The FISH probe consists of two BAC clones spanning the centromeric and telomeric region of the ERG locus on chromosome 21q22.2: RP11-24A11 labelled with biotin-14-dCTP (red) and RP11-137J13 labelled with digoxigenin-dUTP (green). After harvesting, LNCaP cells were incubated with 0.075 M KCl at 37° C. for 15 min and fixed on slides (acetic acid/methanol 1:3). Slides were pre-treated with 2×SSC at 37° C. for 60 min, digested with 1:25 Digest-A11 III at 37° C. for 6 min and dehydrated in an ascending ethanol series. The probes were denatured at 73° C. for 5 min and subsequently co-denaturized with the cells (85° C., 4 min). Hybridization of the two probes was performed at 37° C. overnight. […] Finally slides were counterstained with DAPI and mounted and independently evaluated by two persons.
The target of a further data set is T1, CHD1 D425A (Homo sapiens, UniProt O14646, D425A).
T1 construct: titration of LSD1aa104-127 K114me0, 1, 2, and 3 peptides to CHD1aa270-443; made in house; E. coli likely, inferred from the pET15b vector of the wild-type fragment
T1 sequence (O14646 270-443 D425A): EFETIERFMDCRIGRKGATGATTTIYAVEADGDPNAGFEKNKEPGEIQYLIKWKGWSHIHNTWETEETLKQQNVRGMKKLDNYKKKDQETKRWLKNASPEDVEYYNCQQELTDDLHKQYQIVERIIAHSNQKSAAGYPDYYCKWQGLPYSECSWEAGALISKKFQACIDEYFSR
The data set is described as follows: ITC with CHD1 D425A mutant. The class given is binding. The note with it: data not shown. From the text: Amino acid residues 110-116 of the LSD1 peptide were modelled according to the electron density (FIG. 2c). […] This interaction involves residues Y295, W322, W325 from chromodomain 1 and D408 and D425 from chromodomain 2 (FIG. 2b and FIG. 5a). The methylammonium group of LSD1 K114 and side chains of W322 and W325 of CHD1 form cation-π interactions. […] It was therefore hypothesized that the R113-D425 interaction may be a discriminating feature of CHD1 binding either LSD1 K114me2 or H3K4me3 peptide and that the corresponding surface could be exploited for the design of inhibitors specifically interfering with LSD1 K114me2 but not H3K4me3 interaction (see FIG. 5c). […] Next, it was tested whether in vivo the interaction of CHD1 with LSD1 depends on LSD1 methylation. In the presence of G9A, endogenous CHD1 only coimmunoprecipitated with methylated Flag-LSD1, but not with Flag-LSD1 K114A (FIG. 2d). To investigate whether CHD1 and LSD1 K114me2 are present in the same protein complex, LNCaP cell extracts were subjected to sucrose gradient centrifugation. […] Furthermore, endogenously expressed CHD1 and LSD1 K114me2 coimmunoprecipitated with G9A from LNCaP cell extracts (FIG. 2f). Together, these observations identify CHD1 as a LSD1 K114me2 reader.
ITC experiments were performed at 25° C. with a MicroCal VP-ITC microcalorimeter (GE Healthcare). […]

In the next data set the target is T2, CHD1aa270-443 (Homo sapiens, UniProt O14646).
T2 construct: titration of LSD1aa104-127 K114me0, 1, 2, and 3 peptides to CHD1aa270-443; made in house; E. coli likely, inferred from the pET15b vector
T2 sequence (O14646 270-443): T1 sequence (O14646 270-443 D425A) with A156D
The data set is described as follows: Isothermal titration calorimetry (ITC) of peptides titrated to CHD1. The class given is binding. The note with it: FIG. 2a. As for the experimental part:
ITC experiments were performed at 25° C. with a MicroCal VP-ITC microcalorimeter (GE Healthcare). Experiments were performed by injecting 12 μl of peptide (1.5 mM) into the sample cell containing 100 μM CHD1 in 20 mM BTP pH 8, 75 mM NaCl. A total of 24 injections were performed with a spacing of 240 s and a reference power of […]. Automated baseline assignment and peak integration were performed with NITPIC version 1.0.1.^26. Isotherms were plotted, with a single-site binding model, using SEDPHAT version 10.58d^26. Isotherms were subsequently validated by one dimensional error surface projections in SEDFIT^27.
(In general: Isothermal titration calorimetry measures the heat released or taken up as one component is titrated into another.)

For data set [8], the target named is T3, CHD1 double chromodomain (GST-CHD1 Chromo 1/2) (Homo sapiens, UniProt O14646).
T3 sequence (O14646 268-443 limits assumed): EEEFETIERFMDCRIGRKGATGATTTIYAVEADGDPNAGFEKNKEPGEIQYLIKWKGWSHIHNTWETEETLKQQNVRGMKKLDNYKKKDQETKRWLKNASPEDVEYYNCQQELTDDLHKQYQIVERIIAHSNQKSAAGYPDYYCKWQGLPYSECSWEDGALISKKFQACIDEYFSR
The data set is described as follows: Protein profiling on protein-domain microarrays with LSD1 peptides. Conditions: GST-fusion proteins. The class given is binding. As for the experimental part:
To identify potential LSD1 K114me2 methyl-lysine reader proteins, protein profiling was performed on protein-domain microarrays using un- and dimethylated LSD1 peptides LSD1aa104-127 and LSD1aa104-127 K114me2, respectively (see also ref.^14). In this profiling assay, several GST-fusion proteins including CHD1 fused to GST were used. Other GST-fusions that were used were e.g. PhD-domain proteins (BPTF, ING2 or PHF2), BROMO-domain proteins (GCN5, TAF1-D1 or TAF1-D2), or BRCT-proteins (BRCA1, 53BP1 or Crb2).

Where a chain is given by its changes, count along the chain named.

Regarding `COc1cc2nc(N3CCCN(C)CC3)nc(NC3CCN(Cc4ccccc4)CC3)c2cc1OC` [Bix-01294], in the data set with LNCaP cells [1] (ChIP), the “chromatin occupancy of G9A” value is “not altered”. Also, the “androgen-induced methylation of LSD1 and androgen-induced recruitment of CHD1 and AR” value in the data set on LNCaP cells [1] (DHT, 1×10^−5 M Bix-01294, ChIP, FIG. 3g) is listed as “blocked”. For the same compound, the “DHT-induced expression of TMPRSS2, KLK3, PRDM4, ELK4, GREB1, IGF1R, FKBP5, or EGFR” value in the data set with LNCaP cells [2] and in the data set with LAPC4 cells [3] was “greatly reduced” throughout. The “androgen-dependent TMPRSS2 enhancer-breakpoint loop formation” value with LAPC4 cells [4] is listed as “blocked this loop formation”; in the data set on LNCaP cells [5] (DHT, Bix-01294, FIG. 4a) it was “blocked this loop formation”.

For the compound `C[C@]12CCC(=O)C[C@@H]1CC[C@@H]1[C@@H]2CC[C@]2(C)[C@@H](O)CC[C@@H]12` [DHT, dihydrotestosterone], the “chromatin occupancy of G9A” value in the data set on LNCaP cells [1] (ChIP) was “not altered”. Moreover, the “LSD1 K114me2 levels and CHD1 and AR occupancy of the TMPRSS2 and KLK3 genes” value in the data set on LNCaP cells [1] (DHT 10^−7 M, 210 min, ChIP) was “elevated LSD1 K114me2 levels accompanied by increased CHD1 and AR occupancy”. Besides, the TMPRSS2 enhancer-breakpoint interactions result with LNCaP cells [5] (DHT 10^−7 M, 210 min, 3C) was “enhancer-breakpoint interactions upon treatment with DHT was observed”. The TMPRSS2-ERG transcript result in the data set on LNCaP cells [6] is listed as “led to the production of TMPRSS2-ERG transcript”. The “ERG rearrangements by FISH” value in the data set with LNCaP cells [7] is recorded as “induced ERG rearrangements”.

In the case of “H3K4me3 peptide: histone 3 peptide modified at lysine residue 4 by three methyl-groups”, the “effect of D425A mutation in CHD1 on peptide binding” value with CHD1 D425A is “only mildly affected”.

As to “Unmethylated H3 peptide: unmethylated histone H3 peptide”, the “binding to GST-CHD1 Chromo 1/2” value in the data set with CHD1aa270-443 is recorded as “did not bind”.

As for “Unmethylated LSD1: unmethylated LSD1 peptide LSD1aa104-127 (TPEGRRTSRRKRAKVEYREMDESL)”, the “binding to GST-CHD1 Chromo 1/2” value in the data set with CHD1aa270-443 was “did not bind”. The “interaction with CHD1 double chromodomain on microarray” value in data set [8] is “not”.
